From patent US20090226398A1, “ANTI-VIRAL COMPOUNDS, COMPOSITIONS, AND METHODS OF USE” (Genelabs Technologies, Inc., priority 2008, published 2009)

Test system: HCV replication
Test: Replicon Assay (Huh-lucubineo-ET cells, luciferase readout)
Assay type: cell-based
Settings: Hepatitis C virus; ET (Huh-lucubineo-ET) HCV replicon cell line; luciferase activity 48-72 hours after compound addition; 6 dilutions
How it was run: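 Huh-lucubineo-ET cells stably carrying a firefly luciferase-ubiquitin-neo/NS3-5B ET replicon (adaptive mutations E1202G, T1280I, K1846T) were plated 24 h before compound, then treated at 5 or 50 μM or six 3-fold dilutions. Luciferase read 48-72 h later; % inhibition vs no-compound control, EC50/TC50 from Hill-equation fit.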

Work on `Fc1cc(Cn2cc3nc(-c4cccc(F)c4F)nc-3cn2)ccc1Br` [Compound 309, 5-(4-Bromo-3-fluoro-benzyl)-2-(2,3-difluoro-phenyl)-5H-imidazo[4,5-d]pyridazine] yielded an EC50 of 61000 nM.

Molecule `COc1ccc(-c2ccc(Cn3cc4nc(-c5cccc(F)c5F)nc-4cn3)nc2[N+](=O)[O-])c(C(F)(F)F)c1` [Compound 310, 2-(2,3-Difluoro-phenyl)-5-[5-(4-methoxy-2-trifluoromethyl-phenyl)-6-nitro-pyridin-2-ylmethyl]-5H-imidazo[4,5-d]pyridazine] has an EC50 of 762 nM.

`O=[N+]([O-])c1cc(Cn2cc3nc(-c4cccc(F)c4F)nc-3cn2)ccc1Br` [Compound 311, 5-(4-Bromo-3-nitro-benzyl)-2-(2,3-difluoro-phenyl)-5H-imidazo[4,5-d]pyridazine] showed an EC50 of 6540 nM.

`COC(=O)c1cc(Br)ccc1Cn1cc2nc(-c3cccc(F)c3F)nc-2cn1` [Compound 312, 5-Bromo-2-[2-(2,3-difluoro-phenyl)-imidazo[4,5-d]pyridazin-5-ylmethyl]-benzoic acid methyl ester] was tested, and the EC50 was no less than 50000 nM.

With `Cc1noc(-c2ccc(Cn3cc4nc(-c5cccc(F)c5F)nc-4cn3)cc2)n1` [Compound 313, 2-(2,3-Difluoro-phenyl)-5-[4-(3-methyl-[1,2,4]oxadiazol-5-yl)-benzyl]-5H-imidazo[4,5-d]pyridazine] the EC50 was no less than 50000 nM.

Work on `Fc1cccc(-c2nc3cnn(Cc4ccc(Oc5ccccn5)cc4)cc-3n2)c1F` [Compound 314, 2-(2,3-Difluoro-phenyl)-5-[4-(pyridin-2-yloxy)-benzyl]-5H-imidazo[4,5-d]pyridazine] yielded an EC50 of no less than 50000 nM.

`CCOc1ccc(-c2ccc(Cn3cc4nc(-c5ccccc5F)nc-4cn3)nn2)c(C(F)(F)F)c1` [Compound 315, 5-[6-(4-Ethoxy-2-trifluoromethyl-phenyl)-pyridazin-3-ylmethyl]-2-(2-fluoro-phenyl)-5H-imidazo[4,5-d]pyridazine] gave an EC50 of 20 nM.

For `CCCOc1ccc(-c2ccc(Cn3cc4nc(-c5ccccc5F)nc-4cn3)nn2)c(C(F)(F)F)c1` [Compound 316, 2-(2-Fluoro-phenyl)-5-[6-(4-propoxy-2-trifluoromethyl-phenyl)-pyridazin-3-ylmethyl]-5H-imidazo[4,5-d]pyridazine], the EC50 was 32 nM.

`COc1ccc(-c2ccc(Cn3cc4nc(-c5ccccc5F)nc-4cn3)nn2)c(C(F)(F)F)c1` [Compound 317, 2-(2-Fluoro-phenyl)-5-[6-(4-methoxy-2-trifluoromethyl-phenyl)-pyridazin-3-ylmethyl]-5H-imidazo[4,5-d]pyridazine] was tested, and the EC50 was 64 nM.

In the case of `CC(=O)COc1ccc(-c2ccc(Cn3cc4nc(-c5cccc(F)c5F)nc-4cn3)nn2)c(C(F)(F)F)c1` [Compound 318, 1-(4-{6-[2-(2,3-Difluoro-phenyl)-imidazo[4,5-d]pyridazin-5-ylmethyl]-pyridazin-3-yl}-3-trifluoromethyl-phenoxy)-propan-2-one], the EC50 is reported as 663 nM.

For `CC(O)COc1ccc(-c2ccc(Cn3cc4nc(-c5cccc(F)c5F)nc-4cn3)nn2)c(C(F)(F)F)c1` (stereo not shown) [Compound 319, 1-(4-{6-[2-(2,3-Difluoro-phenyl)-imidazo[4,5-d]pyridazin-5-ylmethyl]-pyridazin-3-yl}-3-trifluoromethyl-phenoxy)-propan-2-ol], the EC50 was 4520 nM.

`Fc1cccc(-c2nc3cnn(Cc4ccc(-c5ccc(OCC6CCOCC6)cc5C(F)(F)F)nn4)cc-3n2)c1F` [Compound 320, 2-(2,3-Difluoro-phenyl)-5-{6-[4-(tetrahydro-pyran-4-ylmethoxy)-2-trifluoromethyl-phenyl]-pyridazin-3-ylmethyl}-5H-imidazo[4,5-d]pyridazine] gave an EC50 of 1710 nM.

Molecule `CC[C@H](C)COc1ccc(-c2ccc(Cn3cc4nc(-c5cccc(F)c5F)nc-4cn3)nn2)c(C(F)(F)F)c1` [Compound 321, 2-(2,3-Difluoro-phenyl)-5-{6-[4-(2-methyl-butoxy)-2-trifluoromethyl-phenyl]-pyridazin-3-ylmethyl}-5H-imidazo[4,5-d]pyridazine] has an EC50 of 45 nM.

In the case of `CCOc1ccc(-c2ccc(Cn3cc4nc(-c5ccccc5F)nc-4cn3)cn2)c(C(F)(F)F)c1` [Compound 322, 5-[6-(4-Ethoxy-2-trifluoromethyl-phenyl)-pyridin-3-ylmethyl]-2-(2-fluoro-phenyl)-5H-imidazo[4,5-d]pyridazine], the EC50 is reported as 33 nM.

In the case of `CCCOc1ccc(-c2ccc(Cn3cc4nc(-c5ccccc5F)nc-4cn3)cn2)c(C(F)(F)F)c1` [Compound 323, 2-(2-Fluoro-phenyl)-5-[6-(4-propoxy-2-trifluoromethyl-phenyl)-pyridin-3-ylmethyl]-5H-imidazo[4,5-d]pyridazine], the EC50 is reported as 33 nM.

With `COCCOc1ccc(-c2ccc(Cn3cc4nc(-c5cccc(F)c5F)nc-4cn3)nn2)c(C(F)(F)F)c1` [Compound 324, 2-(2,3-Difluoro-phenyl)-5-{6-[4-(2-methoxy-ethoxy)-2-trifluoromethyl-phenyl]-pyridazin-3-ylmethyl}-5H-imidazo[4,5-d]pyridazine] the EC50 was 65 nM.

Work on `N#CCOc1ccc(-c2ccc(Cn3cc4nc(-c5cccc(F)c5F)nc-4cn3)nn2)c(C(F)(F)F)c1` [Compound 325, (4-{6-[2-(2,3-Difluoro-phenyl)-imidazo[4,5-d]pyridazin-5-ylmethyl]-pyridazin-3-yl}-3-trifluoromethyl-phenoxy)-acetonitrile] yielded an EC50 of 107 nM.

With `Fc1cccc(-c2nc3cnn(Cc4ccc(-c5ccc(OCC6CCOC6)cc5C(F)(F)F)nn4)cc-3n2)c1F` (stereo not shown) [Compound 326, 2-(2,3-Difluoro-phenyl)-5-{6-[4-(tetrahydro-furan-3-ylmethoxy)-2-trifluoromethyl-phenyl]-pyridazin-3-ylmethyl}-5H-imidazo[4,5-d]pyridazine] the EC50 was 1680 nM.

With `Fc1cccc(-c2nc3cnn(Cc4ccc(-c5ccc(OCC6CC6)cc5C(F)(F)F)nn4)cc-3n2)c1F` [Compound 327, 5-[6-(4-Cyclopropylmethoxy-2-trifluoromethyl-phenyl)-pyridazin-3-ylmethyl]-2-(2,3-difluoro-phenyl)-5H-imidazo[4,5-d]pyridazine] the EC50 was 54 nM.

`CC(C)COc1ccc(-c2ccc(Cn3cc4nc(-c5cccc(F)c5F)nc-4cn3)nn2)c(C(F)(F)F)c1` [Compound 328, 2-(2,3-Difluoro-phenyl)-5-[6-(4-isobutoxy-2-trifluoromethyl-phenyl)-pyridazin-3-ylmethyl]-5H-imidazo[4,5-d]pyridazine] showed an EC50 of 35 nM.

`CC(C)CCOc1ccc(-c2ccc(Cn3cc4nc(-c5cccc(F)c5F)nc-4cn3)nn2)c(C(F)(F)F)c1` [Compound 329, 2-(2,3-Difluoro-phenyl)-5-{6-[4-(3-methyl-butoxy)-2-trifluoromethyl-phenyl]-pyridazin-3-ylmethyl}-5H-imidazo[4,5-d]pyridazine] gave an EC50 of 858 nM.

Molecule `Fc1cccc(-c2nc3cnn(Cc4ccc(-c5ccc(OCCn6ccnc6)cc5C(F)(F)F)nn4)cc-3n2)c1F` [Compound 330, 2-(2,3-Difluoro-phenyl)-5-{6-[4-(2-imidazol-1-yl-ethoxy)-2-trifluoromethyl-phenyl]-pyridazin-3-ylmethyl}-5H-imidazo[4,5-d]pyridazine] has an EC50 of no less than 50000 nM.

For `Fc1cccc(-c2nc3cnn(Cc4ccc(-c5ccc(-c6ccccn6)cc5C(F)(F)F)nn4)cc-3n2)c1F` [Compound 331, 2-(2,3-Difluoro-phenyl)-5-[6-(4-pyridin-2-yl-2-trifluoromethyl-phenyl)-pyridazin-3-ylmethyl]-5H-imidazo[4,5-d]pyridazine], the EC50 was no less than 50000 nM.

`CC(C)Cc1ccc(-c2ccc(Cn3cc4nc(-c5cccc(F)c5F)nc-4cn3)nn2)c(C(F)(F)F)c1` [Compound 332, 2-(2,3-Difluoro-phenyl)-5-[6-(4-isobutyl-2-trifluoromethyl-phenyl)-pyridazin-3-ylmethyl]-5H-imidazo[4,5-d]pyridazine] was tested, and the EC50 was 19 nM.

In the case of `CCCOc1ccc(-c2ccc(Cn3cc4nc(-c5cccc(F)c5F)nc-4cn3)cn2)c(C(F)(F)F)c1` [Compound 333, 2-(2,3-Difluoro-phenyl)-5-[6-(4-propoxy-2-trifluoromethyl-phenyl)-pyridin-3-ylmethyl]-5H-imidazo[4,5-d]pyridazine], the EC50 is reported as 10 nM.

`COc1ccc(-c2ccc(Cn3cc4nc(-c5cccc(F)c5F)nc-4cn3)c(N)c2)c(C(F)(F)F)c1` [Compound 334, 4-[2-(2,3-Difluoro-phenyl)-imidazo[4,5-d]pyridazin-5-ylmethyl]-4′-methoxy-2′-trifluoromethyl-biphenyl-3-ylamine] was tested, and the EC50 was 20 nM.

With `Nc1cc(C(F)(F)F)ccc1-c1ccc(Cn2cc3nc(-c4cccc(F)c4F)nc-3cn2)cn1` [Compound 335, 2-{5-[2-(2,3-Difluoro-phenyl)-imidazo[4,5-d]pyridazin-5-ylmethyl]-pyridin-2-yl}-5-trifluoromethyl-phenylamine] the EC50 was 2390 nM.

Molecule `Cc1ccc(-c2ccc(C(F)(F)F)cc2C(F)(F)F)c(Cn2cc3nc(-c4cccc(F)c4F)nc-3cn2)n1` [Compound 336, 5-[3-(2,4-Bis-trifluoromethyl-phenyl)-6-methyl-pyridin-2-ylmethyl]-2-(2,3-difluoro-phenyl)-5H-imidazo[4,5-d]pyridazine] has an EC50 of no less than 50000 nM.

`Cc1nc(Cn2cc3nc(-c4cccc(F)c4F)nc-3cn2)ccc1-c1ccc(C(F)(F)F)cc1C(F)(F)F` [Compound 337, 5-[5-(2,4-Bis-trifluoromethyl-phenyl)-6-methyl-pyridin-2-ylmethyl]-2-(2,3-difluoro-phenyl)-5H-imidazo[4,5-d]pyridazine] was tested, and the EC50 was 166 nM.

With `COc1ccc(-c2ccc(Cn3cc4nc(-c5cccc(F)c5F)nc-4cn3)c[n+]2[O-])c(C(F)(F)F)c1` [Compound 338, 2-(2,3-Difluoro-phenyl)-5-[6-(4-methoxy-2-trifluoromethyl-phenyl)-1-oxy-pyridin-3-ylmethyl]-5H-imidazo[4,5-d]pyridazine] the EC50 was 1300 nM.

In the case of `CNc1cccc(-c2nc3cnn(Cc4ccc(-c5ccc(C(F)(F)F)cc5C(F)(F)F)nc4)cc-3n2)c1F` [Compound 339, (3-{5-[6-(2,4-Bis-trifluoromethyl-phenyl)-pyridin-3-ylmethyl]-5H-imidazo[4,5-d]pyridazin-2-yl}-2-fluoro-phenyl)-methyl-amine], the EC50 is reported as 14300 nM.
